From ChEMBL document CHEMBL4715821, “Discovery of 4-ethoxy-7H-pyrrolo[2,3-d]pyrimidin-2-amines as potent, selective and orally bioavailable LRRK2 inhibitors” (Bioorg Med Chem Lett, 2018)

Tests used:
[1] = biological target: Dual serine/threonine and tyrosine protein kinase (Homo sapiens) (UniProt Q6XUX3); assay: Inhibition of wild-type human full length RIPK5 (M1 to T929 residues) expressed in mammalian expression system assessed as residual activity at 1 uM by Kinomescan method relative to control
Dual serine/threonine and tyrosine protein kinase (Homo sapiens), sequence (Q6XUX3 whole entry, the tested form may be a part): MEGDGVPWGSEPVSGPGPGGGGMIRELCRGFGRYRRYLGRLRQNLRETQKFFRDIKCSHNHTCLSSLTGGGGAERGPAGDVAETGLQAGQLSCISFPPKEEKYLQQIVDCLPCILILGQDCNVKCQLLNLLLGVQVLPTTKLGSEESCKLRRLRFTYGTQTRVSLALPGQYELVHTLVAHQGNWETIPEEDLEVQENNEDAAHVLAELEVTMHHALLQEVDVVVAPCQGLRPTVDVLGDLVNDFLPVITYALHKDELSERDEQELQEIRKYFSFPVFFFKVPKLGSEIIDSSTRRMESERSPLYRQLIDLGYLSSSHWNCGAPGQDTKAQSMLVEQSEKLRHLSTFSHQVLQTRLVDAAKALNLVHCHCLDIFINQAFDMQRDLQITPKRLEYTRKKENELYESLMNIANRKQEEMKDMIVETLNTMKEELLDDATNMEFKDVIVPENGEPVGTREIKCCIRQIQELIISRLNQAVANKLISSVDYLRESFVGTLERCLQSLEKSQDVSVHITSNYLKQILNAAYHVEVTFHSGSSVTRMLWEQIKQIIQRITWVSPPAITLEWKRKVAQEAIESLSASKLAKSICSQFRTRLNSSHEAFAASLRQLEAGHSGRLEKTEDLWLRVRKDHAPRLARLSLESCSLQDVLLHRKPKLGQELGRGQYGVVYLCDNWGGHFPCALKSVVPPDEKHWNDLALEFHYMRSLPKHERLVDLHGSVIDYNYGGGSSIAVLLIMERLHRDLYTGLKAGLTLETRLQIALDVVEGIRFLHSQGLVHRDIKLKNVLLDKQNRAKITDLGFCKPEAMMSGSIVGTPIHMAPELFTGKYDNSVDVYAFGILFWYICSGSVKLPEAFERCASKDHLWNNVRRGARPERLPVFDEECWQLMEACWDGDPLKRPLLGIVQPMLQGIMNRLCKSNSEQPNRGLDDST

[2] = biological target: Serine/threonine-protein kinase PLK3 (Homo sapiens) (UniProt Q9H4B4); assay: Inhibition of wild-type human partial length PLK3 (A42 to L334 residues) expressed in mammalian expression system assessed as residual activity at 1 uM by Kinomescan method relative to control
[3] = biological target: Serine/threonine-protein kinase Nek2 (Homo sapiens) (UniProt P51955); assay: Inhibition of wild-type human partial length NEK2 (M1 to K309 residues) expressed in bacterial expression system assessed as residual activity at 1 uM by Kinomescan method relative to control
Serine/threonine-protein kinase Nek2 (Homo sapiens), sequence (P51955 whole entry, the tested form may be a part): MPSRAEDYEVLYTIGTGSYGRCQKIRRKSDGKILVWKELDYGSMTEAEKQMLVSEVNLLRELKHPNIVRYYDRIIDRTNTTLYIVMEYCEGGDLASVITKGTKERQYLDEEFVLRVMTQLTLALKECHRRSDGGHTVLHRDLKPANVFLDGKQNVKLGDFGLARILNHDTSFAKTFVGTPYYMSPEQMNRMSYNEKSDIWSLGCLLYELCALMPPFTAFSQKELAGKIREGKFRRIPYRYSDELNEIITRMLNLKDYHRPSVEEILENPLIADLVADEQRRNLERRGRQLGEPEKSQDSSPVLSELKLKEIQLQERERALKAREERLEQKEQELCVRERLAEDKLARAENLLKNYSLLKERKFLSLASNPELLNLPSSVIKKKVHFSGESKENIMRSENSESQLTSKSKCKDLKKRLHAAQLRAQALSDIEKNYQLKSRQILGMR

[4] = biological target: Mitogen-activated protein kinase kinase kinase 5 (Homo sapiens) (UniProt Q99683); assay: Inhibition of wild-type human partial length ASK1 (E648 to S964 residues) expressed in bacterial expression system assessed as residual activity at 1 uM by Kinomescan method relative to control
[5] = biological target: Serine/threonine-protein kinase ULK2 (Homo sapiens) (UniProt Q8IYT8); assay: Inhibition of wild-type human partial length ULK2 (M1 to S301 residues) expressed in mammalian expression system assessed as residual activity at 1 uM by Kinomescan method relative to control
[6] = biological target: NT-3 growth factor receptor (Homo sapiens) (UniProt Q16288); assay: Inhibition of wild-type human partial length TRKC (Q531 to G825 residues) expressed in mammalian expression system assessed as residual activity at 1 uM by Kinomescan method relative to control
[7] = biological target: Myosin light chain kinase 2, skeletal/cardiac muscle (Homo sapiens) (UniProt Q9H1R3); assay: Inhibition of MLCK2 (unknown origin) assessed as residual activity at 1 uM by Kinomescan method relative to control
[8] = biological target: Serine/threonine-protein kinase Sgk3 (Homo sapiens) (UniProt Q96BR1); assay: Inhibition of wild-type human partial length SGK3 (M119 to L496 residues) expressed in mammalian expression system assessed as residual activity at 1 uM by Kinomescan method relative to control
[9] = Dose normalized AUC (0 to t) in Han-Wistar rat brain at 10 mg/kg, po measured up to 7 hrs by UPLC-MS/MS analysis; assay type: ADME, organism-based; conditions: in vivo
[10] = In vivo inhibition of LRRK2 in Han-Wistar rat assessed as reduction in Ser935 phosphorylation in brain at 10 mg/kg, po by Western blot analysis; assay type: functional; parameters: scale not given: the % may be the effect or the level left
[11] = biological target: Cyclin-dependent kinase 5/CDK5 activator 1 (Homo sapiens) (UniProt Q00535+Q15078); assay: Inhibition of wild-type human full length CDK5 (M1 to P292 residues)/p35 expressed in bacterial expression system assessed as residual activity at 1 uM by Kinomescan method relative to control
Cyclin-dependent kinase 5/CDK5 activator 1 (Homo sapiens), sequence (Q00535 whole entry, the tested form may be a part): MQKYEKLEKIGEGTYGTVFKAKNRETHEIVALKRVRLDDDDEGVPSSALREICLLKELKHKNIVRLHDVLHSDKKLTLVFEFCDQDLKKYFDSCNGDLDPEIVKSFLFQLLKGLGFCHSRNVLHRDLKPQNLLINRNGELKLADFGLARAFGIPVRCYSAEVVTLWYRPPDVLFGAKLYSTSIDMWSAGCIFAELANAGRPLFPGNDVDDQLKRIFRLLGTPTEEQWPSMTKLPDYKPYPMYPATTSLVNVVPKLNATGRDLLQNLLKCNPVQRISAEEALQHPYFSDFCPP
Cyclin-dependent kinase 5/CDK5 activator 1 (Homo sapiens), sequence (Q15078 99-307 partner limits assumed): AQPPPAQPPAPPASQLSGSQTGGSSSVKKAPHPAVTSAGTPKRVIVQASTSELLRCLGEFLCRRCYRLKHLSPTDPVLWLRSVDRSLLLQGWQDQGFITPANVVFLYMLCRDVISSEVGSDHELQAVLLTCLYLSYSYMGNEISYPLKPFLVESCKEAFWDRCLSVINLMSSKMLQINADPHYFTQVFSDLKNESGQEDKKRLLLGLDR

[12] = biological target: Serine/threonine-protein kinase 4 (Homo sapiens) (UniProt Q13043); assay: Inhibition of wild-type human full length MST1 (M1 to F487 residues) expressed in bacterial expression system assessed as residual activity at 1 uM by Kinomescan method relative to control
[13] = biological target: Dual specificity tyrosine-phosphorylation-regulated kinase 2 (Homo sapiens) (UniProt Q92630); assay: Inhibition of wild-type human full length DYRK2 (M1 to S528 residues) expressed in mammalian expression system assessed as residual activity at 1 uM by Kinomescan method relative to control
Dual specificity tyrosine-phosphorylation-regulated kinase 2 (Homo sapiens), sequence (Q92630 whole entry, the tested form may be a part): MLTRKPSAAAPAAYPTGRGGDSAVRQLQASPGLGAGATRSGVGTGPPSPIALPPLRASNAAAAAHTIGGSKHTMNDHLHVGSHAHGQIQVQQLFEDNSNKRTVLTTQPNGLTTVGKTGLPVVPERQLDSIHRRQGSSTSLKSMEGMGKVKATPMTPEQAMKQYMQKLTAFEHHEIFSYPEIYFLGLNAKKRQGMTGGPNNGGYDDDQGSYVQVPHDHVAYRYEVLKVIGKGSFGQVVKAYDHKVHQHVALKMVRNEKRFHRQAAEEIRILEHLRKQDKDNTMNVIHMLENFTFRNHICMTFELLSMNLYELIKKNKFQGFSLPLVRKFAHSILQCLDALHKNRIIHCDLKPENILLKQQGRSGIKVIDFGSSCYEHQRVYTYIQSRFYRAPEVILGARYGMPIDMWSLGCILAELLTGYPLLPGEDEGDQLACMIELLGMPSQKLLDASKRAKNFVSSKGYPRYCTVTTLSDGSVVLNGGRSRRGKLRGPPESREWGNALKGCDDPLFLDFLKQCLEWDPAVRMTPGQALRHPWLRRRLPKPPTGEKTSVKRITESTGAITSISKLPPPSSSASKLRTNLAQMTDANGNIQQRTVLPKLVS

[14] = biological target: Serine/threonine-protein kinase SIK3 (Homo sapiens) (UniProt Q9Y2K2); assay: Inhibition of SIK3 (unknown origin) assessed as residual activity at 1 uM by Kinomescan method relative to control
[15] = biological target: Leukocyte tyrosine kinase receptor (Homo sapiens) (UniProt P29376); assay: Inhibition of wild-type human partial length LTK (P422 to S744 residues) expressed in bacterial expression system assessed as residual activity at 1 uM by Kinomescan method relative to control
[16] = biological target: Myosin-IIIb (Homo sapiens) (UniProt Q8WXR4); assay: Inhibition of wild-type human partial length MYO3B (M1 to D357 residues) expressed in bacterial expression system assessed as residual activity at 1 uM by Kinomescan method relative to control
[17] = biological target: Serine/threonine-protein kinase PAK 3 (Homo sapiens) (UniProt O75914); assay: Inhibition of wild-type human full length PAK3 (M1 to R544 residues) expressed in bacterial expression system assessed as residual activity at 1 uM by Kinomescan method relative to control
Serine/threonine-protein kinase PAK 3 (Homo sapiens), sequence (O75914 whole entry, looked up, the tested form may be a part): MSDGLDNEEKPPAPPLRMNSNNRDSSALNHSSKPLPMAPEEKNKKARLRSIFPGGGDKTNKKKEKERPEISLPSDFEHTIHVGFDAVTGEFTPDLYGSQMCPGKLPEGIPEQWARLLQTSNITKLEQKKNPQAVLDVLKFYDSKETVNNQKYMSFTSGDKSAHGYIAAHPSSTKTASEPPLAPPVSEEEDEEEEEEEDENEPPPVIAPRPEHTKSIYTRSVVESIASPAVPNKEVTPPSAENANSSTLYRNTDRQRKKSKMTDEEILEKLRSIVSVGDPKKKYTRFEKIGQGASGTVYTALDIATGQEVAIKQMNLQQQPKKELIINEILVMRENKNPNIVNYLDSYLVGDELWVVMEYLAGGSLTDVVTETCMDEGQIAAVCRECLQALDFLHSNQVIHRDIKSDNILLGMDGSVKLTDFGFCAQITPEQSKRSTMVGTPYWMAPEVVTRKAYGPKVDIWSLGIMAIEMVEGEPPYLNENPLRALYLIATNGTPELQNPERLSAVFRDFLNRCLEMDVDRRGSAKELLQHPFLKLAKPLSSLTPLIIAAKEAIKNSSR

[18] = biological target: Protein kinase C alpha type (Homo sapiens) (UniProt P17252); assay: Inhibition of PKCalpha (unknown origin) assessed as residual activity at 1 uM by Kinomescan method relative to control
[19] = biological target: Dual specificity protein kinase CLK1 (Homo sapiens) (UniProt P49759); assay: Inhibition of wild-type human full length CLK1 (M1 to I484 residues) expressed in bacterial expression system assessed as residual activity at 1 uM by Kinomescan method relative to control
[20] = biological target: Leucine-rich repeat serine/threonine-protein kinase 2 (Homo sapiens, UniProt Q5S007); assay: Inhibition of wild-type human partial length LRRK2 (H970 to E2527 residues) expressed in mammalian expression system assessed as residual activity at 1 uM by Kinomescan method relative to control
[21] = biological target: Serine/threonine-protein kinase OSR1 (Homo sapiens) (UniProt O95747); assay: Inhibition of wild-type human full length OSR1 (M1 to S527 residues) expressed in mammalian expression system assessed as residual activity at 1 uM by Kinomescan method relative to control
Serine/threonine-protein kinase OSR1 (Homo sapiens), sequence (O95747 whole entry, looked up, the tested form may be a part): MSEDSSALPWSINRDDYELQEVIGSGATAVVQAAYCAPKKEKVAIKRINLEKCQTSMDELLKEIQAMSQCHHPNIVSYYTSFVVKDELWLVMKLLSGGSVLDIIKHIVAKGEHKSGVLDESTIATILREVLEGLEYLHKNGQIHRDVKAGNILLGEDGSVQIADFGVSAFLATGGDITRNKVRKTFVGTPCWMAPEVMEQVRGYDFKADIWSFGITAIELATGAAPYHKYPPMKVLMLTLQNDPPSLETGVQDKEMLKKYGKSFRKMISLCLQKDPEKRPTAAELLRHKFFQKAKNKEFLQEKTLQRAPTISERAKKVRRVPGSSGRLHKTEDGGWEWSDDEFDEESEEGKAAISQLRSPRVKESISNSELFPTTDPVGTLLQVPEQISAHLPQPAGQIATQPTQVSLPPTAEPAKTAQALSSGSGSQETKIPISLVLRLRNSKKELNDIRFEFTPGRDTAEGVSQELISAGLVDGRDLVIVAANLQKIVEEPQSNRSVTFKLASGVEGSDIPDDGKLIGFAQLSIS

[22] = biological target: Receptor-interacting serine/threonine-protein kinase 2 (Homo sapiens) (UniProt O43353); assay: Inhibition of wild-type human partial length RIPK2 (M1 to K310 residues) expressed in bacterial expression system assessed as residual activity at 1 uM by Kinomescan method relative to control
Receptor-interacting serine/threonine-protein kinase 2 (Homo sapiens), sequence (O43353 whole entry, the tested form may be a part): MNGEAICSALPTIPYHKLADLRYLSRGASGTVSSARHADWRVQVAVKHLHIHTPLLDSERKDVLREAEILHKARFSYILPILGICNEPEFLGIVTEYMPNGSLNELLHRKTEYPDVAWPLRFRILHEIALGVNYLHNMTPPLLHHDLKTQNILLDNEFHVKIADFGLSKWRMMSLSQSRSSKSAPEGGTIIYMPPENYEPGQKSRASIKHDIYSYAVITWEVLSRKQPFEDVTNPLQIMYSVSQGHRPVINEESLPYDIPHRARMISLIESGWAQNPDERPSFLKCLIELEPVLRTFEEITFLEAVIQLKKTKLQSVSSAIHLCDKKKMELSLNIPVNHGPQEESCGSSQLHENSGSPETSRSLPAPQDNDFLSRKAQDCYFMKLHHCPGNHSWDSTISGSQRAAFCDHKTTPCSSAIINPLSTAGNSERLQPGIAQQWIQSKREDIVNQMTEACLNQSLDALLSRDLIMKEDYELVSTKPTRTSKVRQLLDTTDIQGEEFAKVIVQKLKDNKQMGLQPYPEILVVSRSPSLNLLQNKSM

[23] = biological target: Bone morphogenetic protein receptor type-1A (Homo sapiens) (UniProt P36894); assay: Inhibition of wild-type human partial length BMPR1A (Q214 to I532 residues) expressed in bacterial expression system assessed as residual activity at 1 uM by Kinomescan method relative to control
[24] = biological target: G protein-coupled receptor kinase 3 (Homo sapiens) (UniProt P35626); assay: Inhibition of wild-type human full length GRK3 (M1 to L688 residues) expressed in mammalian expression system assessed as residual activity at 1 uM by Kinomescan method relative to control
[25] = biological target: Serine/threonine-protein kinase VRK2 (Homo sapiens) (UniProt Q86Y07); assay: Inhibition of wild-type human partial length VRK2 (M1 to T336 residues) expressed in mammalian expression system assessed as residual activity at 1 uM by Kinomescan method relative to control
[26] = biological target: MAP kinase-activated protein kinase 2 (Homo sapiens) (UniProt P49137); assay: Inhibition of wild-type human partial length MAPKAPK2 (V48 to D345 residues) expressed in bacterial expression system assessed as residual activity at 1 uM by Kinomescan method relative to control

CCOc1nc(Nc2ccc(C(=O)N3CCOCC3)cc2OC)nc2[nH]ccc12
Activity [1]: 111%
Activity [2]: 88.1%
Activity [3]: 96.1%
Activity [4]: 92.2%
Activity [5]: 101%
Activity [6]: 97.7%
Activity [7]: 95.6%
Activity [8]: 93.7%
AUCt/dose [9]: 252 ng·h/g/mg/kg
Activity [10]: 20%
Activity [11]: 93.1%
Activity [12]: 99.8%
Activity [13]: 81.3%
Activity [14]: 106%
Activity [15]: 20.2%
Activity [16]: 48.9%
Activity [17]: 96.4%
Activity [18]: 95.5%
Activity [19]: 37.4%
Activity [20]: 0.91%
Activity [21]: 101%
Activity [22]: 91.7%
Activity [23]: 94%
Activity [24]: 97.2%
Activity [25]: 102%
Activity [26]: 91.6%
